Assays:
BRD4(BD1+BD2) protein = molecular target: T1, BRD4(BD1+BD2) protein (Homo sapiens, UniProt O60885); assay: BRD4 binding inhibition assay (TR-FRET); conditions: BRD4(BD1+BD2) TR-FRET Assay Kit, reaction 2 hours at room temperature; read-out: IC50 (concentration necessary for 50% inhibition of BRD4 binding activity)
T1 construct: 5 μL of BRD4(BD1+BD2) protein solution prepared to 3.6 ng/μL; purchased BPS Bioscience Inc. 32612
Experimental: This assay measures binding inhibition activity of the test substance on the bromodomain of BRD4 protein.
BRD4 binding inhibition activity assay was carried out using a BRD4(BD1+BD2)TR-FRET Assay Kit (BPS Bioscience Inc. Catalog #32612), according to the attached instructions. In a flat-bottom 384-well white plate (Greiner 781080) there was added 8 μL of Tb-labeled donor/dye-labeled acceptor solution diluted 160-fold with 1×BRD TR-FRET Assay Buffer1, with 5 μL of BET Bromodomain Ligand diluted 40-fold with 1×BRD TR-FRET Assay Buffer1 in the test substance measuring wells and the Positive Control wells, and 5 μL of Non-acetylated Ligand1 diluted 40-fold with 1×BRD TR-FRET Assay Buffer1 in the Negative Control wells. After adding 2 μL of test substance diluted with 1×BRD TR-FRET Assay Buffer1 to the test substance measuring wells, and 2 μL of Dimethyl Sulfoxide solution diluted 100-fold with 1×BRD TR-FRET Assay Buffer1 to the Positive Control wells and Negative Control wells, 5 μL of BRD4(BD1+BD2) protein solution prepared to 3.6 ng/μL with 1×BRD TR-FRET Assay Buffer1 was added and reaction was conducted for 2 hours at room temperature. The fluorescence intensity was measured at 620 nm and 665 nm with irradiation of 340 nm excitation light into each well, using an Envision™ (Perkin-Elmer). The ratio of fluorescence intensity at […] with respect to fluorescence intensity at 620 nm for each well was recorded as the TR-FRET ratio, and the TR-FRET ratio in the presence of the test substance was calculated with the Positive Control well value as 100%, subtracting the Negative Control well value. The concentration of test substance necessary for 50% inhibition of BRD4 binding activity (IC50) was calculated from the TR-FRET ratio, and shown in Table 1.

AsPC-1/Cas9 cell line = assay: AsPC-1/Cas9 growth inhibition assay; assay type: cell-based, human; conditions: Homo sapiens, ASPC1, 120 h, AsPC-1/Cas9 cells, 5 days culture, CellTiter Glo 2.0; read-out: Absolute IC50—Day 5 (nM) AsPC-1 Cas9
Experimental: The human pancreatic cancer cell line AsPC-1 (ATCC Number CRL1682) was infected with Edit-R Lentiviral hCMV-Blast-Cas9 Nuclease Particle (Dharmacon, VCAS10124) in the presence of 8 μg/ml of Hexadimethrine bromide (Sigma, H9268), and after 24 hours it was exposed to 10 μg/ml of Blastcidin S (Thermo, A11139) to remove the uninfected cells, thereby establishing an AsPC-1/Cas9 cell line. The cells were maintenance cultured in a 5% CO2 incubator (37° C.) using RPMI-1640 (FujiFilm-Wako Pure Chemical Industries) containing 10% fetal bovine serum (FBS: SIGMA 173012) and penicillin/streptomycin (FujiFilm-Wako Pure Chemical Industries) (hereunder referred to simply as “culture medium”). After adding 45 μL of AsPC-1/Cas9 cell suspension prepared to 2.0×10^4 cells/mL using culture medium into each well of a 384-well plate (Greiner 781091), the cells were cultured overnight in a 5% CO2 incubator (37° C.). On the following day, 5 μL of the test substance diluted with culture medium was added to each well, and culturing was continued for 5 days in a 5% CO2 incubator (37° C.). Next, 25 μL of CellTiter Glo™ 2.0 (Promega) was added to each well, and the plate contents were mixed for 5 minutes using a plate mixer. The plate was stationed for 10 minutes at room temperature while shielded from light, and then the luminous intensity was measured with an ENVISION™ (Perkin-Elmer). The luminescence value of the wells with addition of test substance was determined as a relative value, with 100% as the luminescence value of the wells with cells but without addition of the test substance, and 0% as the luminescence value of the wells without cells. A plot of test substance concentration against luminescence value % approximated a 4-parameter logistic curve, and the test substance concentration necessary for 50% inhibition of cell growth (Absolute IC50) was calculated, and is shown in Table 4.

[1] = molecular target: HiBiT tagged BRD4-BD1 protein in HEK293/LgBiT/hPGK/HiBiT-BRD4-BD1 cells (Homo sapiens, UniProt O60885); assay: BET BD1 domain degradation assay; assay type: cell-based; design: HiBit-linker-BRD4 BD1(1-209); host or cells: HEK293 (ATCC CRL-1573) stably transduced with LgBiT and HiBiT-BRD4-BD1; conditions: concentration for 50% reduction in HiBiT-BRD4-BD1 protein level, 3 hours, read-out: Absolute DC50—3 h (nM) HEK293_HiBiT-BRD4-BD1
Text: HEK293/LgBiT/hPGK/HiBiT-BRD4-BD1 cells were established by introducing LgBiT and HiBiT-BRD4-BD1 into the human fetus renal cell line HEK293 (ATCC Number CRL-1573). LgBiT was introduced using lentivirus vector LV[Exp]-Bsd-EFS>{LgBiT}, and HiBiT-BRD4-BD1 was introduced with lentivirus vector LV[Exp]-Puro-hPGK>{HiBit-linker-BRD4 BD1(1-209)}. The vector plasmids LV[Exp]-Bsd-EFS>{LgBiT} and LV[Exp]-Puro-hPGK>{HiBit-linker-BRD4_BD1(1-209)} were constructed by VectorBuilder Co. The lentivirus was produced using a Mission Lentivirus Packaging Mix (Sigma) according to the manufacturer's protocol. Viral infection and drug selection of infected cells were carried out by the following published method (Akagi T. et. al, PNAS 2003; 100:13567-72). The cells were maintenance cultured in a 5% CO2 incubator (37° C.), using culture medium. A 45 μL portion of cell suspension of HEK293/LgBiT/hPGK/HiBiT-BRD4-BD1 cells prepared to 6.7×10^4 cells/mL using culture medium was added to each well of a collagen I-coated 384-well plate (Falcon 356667), and the cells were cultured overnight in a 5% CO2 incubator (37° C.). On the following day, 5 μL of test substance diluted with RPMI-1640 (FujiFilm-Wako Pure Chemical Industries) containing 10% fetal bovine serum (FBS: SIGMA 173012) and penicillin/streptomycin (FujiFilm-Wako Pure Chemical Industries) was added to each well, and culturing was continued for 3 hours in a 5% CO2 incubator (37° C.). The luminous intensity was measured using a Nono-Glo HiBiT Lytic Detection System (Promega), and the intracellular HiBiT tagged BRD4-BD1 protein level was calculated. After culturing, 25 μL of measuring reagent was added to each well and the plate contents were mixed for 5 minutes using a plate mixer. The plate was stationed for 10 minutes at room temperature while shielded from light, and then the luminous intensity was measured with an ENVISION′ (Perkin-Elmer). The luminescence value of the wells with addition of test substance was determined as a relative value, with 100% as the luminescence value of the wells with cells but without addition of the test substance, and 0% as the luminescence value of the wells without cells. A plot of test substance concentration against luminescence value % approximated a 4-parameter logistic curve, and the test substance concentration necessary for 50% reduction in protein level (Absolute DC50) was calculated and is shown in Table 4.

Structure (SMILES)	IC50 (BRD4(BD1+BD2) protein) [nM]	IC50 (AsPC-1/Cas9 cell line) [nM]	DC50 [1] [nM]
Cc1cc(-c2ccc3nc(N)nc(C(CO)(OC4CC4)c4ccccc4)c3c2)cn(C)c1=O (centres unmarked) [Example 2, 5-(2-Amino-4-(1-cyclopropoxy-2-hydroxy-1-phenylethyl)quinazolin-6-yl)-1,3-dimethylpyridin-2(1H)-one]	26		
COc1ccc(C(=O)NC2(C)CCN(C3CCN(c4nc(C(CO)(CC(C)C)c5cccs5)c5cc(-c6cn(C)c(=O)c7[nH]ccc67)ccc5n4)CC3)CC2)cc1N1CCC(=O)NC1=O (centres unmarked) [Example 125, 3-(2,4-Dioxotetrahydropyrimidine-1(2H)-yl)-N-(1′-(4-(1-hydroxy-4-methyl-2-(thiophen-2-yl)pentan-2-yl)-6-(6-methyl-7-oxo-6,7-dihydro-1H-pyrrolo[2,3-c]pyridin-4-yl)quinazolin-2-yl)-4-methyl-[1,4′-bipiperidin]-4-yl)-4-methoxybenzamide]		0.2	0.19
CCCC(CO)(CCC)c1nc(N2CCC(OC3CCN(C(=O)c4ccc(OC)c(N5CCC(=O)NC5=O)c4)CC3)CC2)nc2ccc(-c3cn(C)c(=O)cc3OC)cc12 [Example 126, 1-(5-(4-((1-(4-(4-(Hydroxymethyl)heptan-4-yl)-6-(4-methoxy-1-methyl-6-oxo-1,6-dihydropyridin-3-yl)quinazolin-2-yl)piperidin-4-yl)oxy)piperidine-1-carbonyl)-2-methoxyphenyl)dihydropyrimidine-2,4(1H,3H)-dione]		0.084	0.05
Cc1ccc(C(=O)N2C[C@H](C)N(C3CCN(c4nc(C(CO)(OC5CC5)c5cccc(O)c5)c5cc(-c6cn(C)c(=O)c7[nH]ccc67)ccc5n4)CC3)C[C@H]2C)cc1N1CCC(=O)NC1=O (stereo partly drawn) [Example 127, 1-(5-((2R,5S)-4-(1-(4-(1-Cyclopropoxy-2-hydroxy-1-(3-hydroxyphenyl)ethyl)-6-(6-methyl-7-oxo-6,7-dihydro-1H-pyrrolo[2,3-c]pyridin-4-yl)quinazolin-2-yl)piperidin-4-yl)-2,5-dimethylpiperazine-1-carbonyl)-2-methylphenyl)dihydropyrimidine-2,4-(1H,3H)-dione]		0.17	0.6
COc1ccc(C(=O)NC2(C)CCN(C3CCN(c4nc(C(CO)(OC5CC5)c5cccc6ccccc56)c5cc(-c6cn(C)c(=O)c7[nH]ccc67)ccc5n4)CC3)CC2)cc1N1CCC(=O)NC1=O (centres unmarked) [Example 128, N-(1′-(4-(1-Cyclopropoxy-2-hydroxy-1-(naphthalen-1-yl)ethyl)-6-(6-methyl-7-oxo-6,7-dihydro-1H-pyrrolo[2,3-c]pyridin-4-yl)quinazolin-2-yl)-4-methyl-[1,4′-bipiperidin]-4-yl)-3-(2,4-dioxotetrahydropyrimidine-1(2H)-yl)-4-methoxybenzamide]		0.32	0.25
COc1ccc(-n2cc(CN3CCN(CC4CCN(c5nc(C(CO)(OC6CC6)c6ccccc6)c6cc(-c7cc(C)c(=O)n(C)c7)ccc6n5)CC4)CC3)nn2)cc1N1CCC(=O)NC1=O (centres unmarked) [Example 130, 1-(5-(4-((4-((1-(4-(1-Cyclopropoxy-2-hydroxy-1-phenylethyl)-6-(1,5-dimethyl-6-oxo-1,6-dihydropyridin-3-yl)quinazolin-2-yl)piperidin-4-yl)methyl)piperazin-1-yl)methyl)-1H-1,2,3-triazol-1-yl)-2-methoxyphenyl)-dihydropyrimidine-2,4(1H,3H)-dione]		0.98	0.19
COc1ccc(C#CCNC2(C)CCN(C3CCN(c4nc([C@@](COCNC(=O)[C@H](CC(N)=O)NC(C)=O)(OC5CC5)c5ccccc5)c5cc(-c6cn(C)c(=O)c7[nH]ccc67)ccc5n4)CC3)CC2)cc1N1CCC(=O)NC1=O [Example 131]		4.5	11
COc1ccc(C#CCNC2(C)CCN(C3CCN(c4nc([C@@](CO)(OC5CC5)c5ccccc5)c5cc(-c6cn(C)c(=O)c7[nH]ccc67)ccc5n4)CC3)CC2)cc1N1CCC(=O)N(CNC(=O)[C@H](CC(=O)O)NC(C)=O)C1=O [Example 138, (S)-3-Acetamide-4-(((3-(5-(3-((1′-(4-((S)-1-cyclopropoxy-2-hydroxy-1-phenylethyl)-6-(6-methyl-7-oxo-6,7-dihydro-1H-pyrrolo[2,3-c]pyridin-4-yl)quinazolin-2-yl)-4-methyl-[1,4′-bipiperidin]-4-yl)amino)prop-1-yn-1-yl)-2-methoxyphenyl)-2,6-dioxotetrahydropyrimidine-1(2H)-yl)methyl)amino)-4-oxobutanoic acid]		41	> 100
COc1ccc(C#CCNC2(C)CCN(C3CCN(c4nc(C(CO)(OC5CC5)c5ccccc5)c5cc(-c6cn(C)c(=O)c7[nH]ccc67)ccc5n4)CC3)CC2)cc1N1CCC(=O)NC1=O (centres unmarked) [Example 144, 1-(5-(3-((1′-(4-(1-Cyclopropoxy-2-hydroxy-1-phenylethyl)-6-(6-methyl-7-oxo-6,7-dihydro-1H-pyrrolo[2,3-c]pyridin-4-yl)quinazolin-2-yl)-4-methyl-[1,4′-bipiperidin]-4-yl)amino)prop-1-yn-1-yl)-2-methoxyphenyl)dihydropyrimidine-2,4(1H,3H)-dione]		0.13	0.11
